Where two headings read alike, the source gives them in different places.
Columns and labels:
Format in all cases: biochemical
Conditions in all cases: Table D1
[1] = target: T1, human JAK1 (a.a. 837-1142) (Homo sapiens, UniProt P23458); test: In vitro JAK kinase assay (HTRF, phosphorylation of a biotinylated peptide), JAK1
T1 construct: human JAK1 (a.a. 837-1142); His tag (N); made in house; host or cells: insect cells (baculovirus)
Method in brief: (§1)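 Kinase reactions ran at room temperature for 1 h with ATP matched per isoform (JAK1 90 μM, JAK2 30 μM, JAK3 3 μM). After an EDTA stop, the phosphorylated biotin-peptide was read by HTRF using Eu-Py20 and SA-APC after 40 min binding.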

[2] = target: T2, human JAK3 (a.a. 781-1124) (Homo sapiens, UniProt P52333); test: In vitro JAK kinase assay (HTRF, phosphorylation of a biotinylated peptide), JAK3
T2 construct: JAK3 (a.a. 781-1124); His tag (N); made in house; host or cells: insect cells (baculovirus)
Method in brief: as §1

[3] = target: T3, human JAK2 (a.a. 828-1132) (Homo sapiens, UniProt O60674); test: In vitro JAK kinase assay (HTRF, phosphorylation of a biotinylated peptide), JAK2
T3 construct: JAK2 (a.a. 828-1132); His tag (N); made in house; host or cells: insect cells (baculovirus)
Method in brief: as §1

[4] = target: TYK2 (Homo sapiens, UniProt P29597); test: TYK2 kinase inhibition (Table A1)
TYK2, sequence (P29597 whole entry): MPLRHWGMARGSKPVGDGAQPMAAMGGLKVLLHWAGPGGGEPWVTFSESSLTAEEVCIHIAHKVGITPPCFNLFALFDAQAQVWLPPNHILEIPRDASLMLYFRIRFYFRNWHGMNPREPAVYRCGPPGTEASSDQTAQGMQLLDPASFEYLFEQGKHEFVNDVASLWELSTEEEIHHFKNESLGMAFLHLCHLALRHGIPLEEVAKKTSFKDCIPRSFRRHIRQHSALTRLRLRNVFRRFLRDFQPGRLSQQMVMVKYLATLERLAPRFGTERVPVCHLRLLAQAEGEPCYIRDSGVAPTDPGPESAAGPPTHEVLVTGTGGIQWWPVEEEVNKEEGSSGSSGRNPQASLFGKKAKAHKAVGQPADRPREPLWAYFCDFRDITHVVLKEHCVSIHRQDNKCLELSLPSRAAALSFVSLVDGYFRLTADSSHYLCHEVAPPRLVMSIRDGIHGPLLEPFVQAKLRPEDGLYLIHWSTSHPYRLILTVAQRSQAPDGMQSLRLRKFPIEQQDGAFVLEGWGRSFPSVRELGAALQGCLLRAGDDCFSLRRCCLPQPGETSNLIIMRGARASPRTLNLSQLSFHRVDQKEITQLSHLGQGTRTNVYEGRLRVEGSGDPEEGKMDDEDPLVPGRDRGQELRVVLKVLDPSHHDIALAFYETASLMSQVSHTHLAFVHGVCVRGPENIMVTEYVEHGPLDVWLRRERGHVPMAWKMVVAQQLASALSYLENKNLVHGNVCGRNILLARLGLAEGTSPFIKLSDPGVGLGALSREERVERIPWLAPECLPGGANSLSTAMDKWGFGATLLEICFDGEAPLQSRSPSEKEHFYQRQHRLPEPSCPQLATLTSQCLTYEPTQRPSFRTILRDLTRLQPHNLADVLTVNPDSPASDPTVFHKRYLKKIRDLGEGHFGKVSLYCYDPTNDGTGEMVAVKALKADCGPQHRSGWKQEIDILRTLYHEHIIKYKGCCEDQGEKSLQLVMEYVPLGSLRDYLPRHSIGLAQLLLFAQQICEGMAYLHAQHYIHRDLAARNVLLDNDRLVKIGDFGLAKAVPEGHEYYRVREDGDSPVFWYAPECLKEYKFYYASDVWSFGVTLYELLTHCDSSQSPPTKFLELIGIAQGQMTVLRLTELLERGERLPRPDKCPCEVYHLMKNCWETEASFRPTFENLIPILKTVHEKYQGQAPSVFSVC

T1 sequence (P23458 849-1154): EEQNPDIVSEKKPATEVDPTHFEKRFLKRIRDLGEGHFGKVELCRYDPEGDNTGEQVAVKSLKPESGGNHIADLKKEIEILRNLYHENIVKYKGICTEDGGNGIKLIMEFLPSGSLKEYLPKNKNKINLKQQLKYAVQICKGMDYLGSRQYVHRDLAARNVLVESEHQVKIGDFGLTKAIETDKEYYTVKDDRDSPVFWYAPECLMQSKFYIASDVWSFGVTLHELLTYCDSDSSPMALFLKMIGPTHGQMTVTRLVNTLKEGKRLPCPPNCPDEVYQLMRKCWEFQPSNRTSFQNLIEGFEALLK
T2 sequence (P52333 781-1124): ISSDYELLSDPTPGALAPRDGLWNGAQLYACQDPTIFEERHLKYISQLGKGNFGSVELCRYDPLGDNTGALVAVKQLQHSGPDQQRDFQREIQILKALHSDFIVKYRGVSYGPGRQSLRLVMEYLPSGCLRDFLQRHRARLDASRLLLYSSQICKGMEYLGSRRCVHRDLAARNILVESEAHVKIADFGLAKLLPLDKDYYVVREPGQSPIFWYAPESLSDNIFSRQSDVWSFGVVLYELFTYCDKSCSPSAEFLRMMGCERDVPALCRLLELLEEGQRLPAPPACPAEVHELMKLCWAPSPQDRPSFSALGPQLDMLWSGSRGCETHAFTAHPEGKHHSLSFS
T3 sequence (O60674 828-1132): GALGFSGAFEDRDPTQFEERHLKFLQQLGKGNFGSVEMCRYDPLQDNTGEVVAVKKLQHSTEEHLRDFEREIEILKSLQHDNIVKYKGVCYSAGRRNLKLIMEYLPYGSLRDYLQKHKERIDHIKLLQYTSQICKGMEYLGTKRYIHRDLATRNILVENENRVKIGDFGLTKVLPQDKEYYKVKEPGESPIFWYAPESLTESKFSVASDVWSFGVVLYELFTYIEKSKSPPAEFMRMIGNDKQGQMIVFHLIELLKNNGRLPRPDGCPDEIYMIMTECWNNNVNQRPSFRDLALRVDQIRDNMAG

## O=C(CC1CN(c2nncs2)C1)Nc1ccc2cc1CCc1cncc(c1)Nc1ncc(Cl)c(n1)N2 [Example D151, N-[6-Chloro-2,4,8,18,22-pentaazatetracyclo[14.3.1.1(3,7).1(9,13)]docosa-1(20),3(22),4,6,9(21),10,12,16,18-nonaen-12-yl]-2-[1-(1,3,4-thiadiazol-2-yl)azetidin-3-yl]acetamide tris(trifluoroacetate)]
[1]; read-out: JAK1 IC50
  IC50: 76 nM
[2]
  IC50: > 200 nM
[3]
  IC50: > 200 nM
[4]
  IC50: > 200 nM

## O=C(CC1CN(c2nccs2)C1)Nc1ccc2cc1CCc1cncc(c1)Nc1ncc(Cl)c(n1)N2 [Example D152, N-[6-Chloro-2,4,8,18,22-pentaazatetracyclo[14.3.1.1(3,7).1(9,13)]docosa-1(20),3(22),4,6,9(21),10,12,16,18-nonaen-12-yl]-2-[1-(1,3-thiazol-2-yl)azetidin-3-yl]acetamide tris(trifluoroacetate)]
[1]; read-out: JAK1 IC50
  IC50: 21 nM
[2]
  IC50: > 400 nM
[3]
  IC50: 95 nM
[4]
  IC50: 265 nM

## O=C(CC1CN(c2ccccn2)C1)Nc1ccc2cc1CCc1cncc(c1)Nc1ncc(Cl)c(n1)N2 [Example D153, N-[6-Chloro-2,4,8,18,22-pentaazatetracyclo[14.3.1.1(3,7).1(9,13)]docosa-1(20),3(22),4,6,9(21),10,12,16,18-nonaen-12-yl]-2-(1-pyridin-2-ylazetidin-3-yl)acetamide tris(trifluoroacetate)]
[1]; read-out: JAK1 IC50
  IC50: 30 nM
[2]
  IC50: > 400 nM
[3]
  IC50: 150 nM
[4]
  IC50: > 400 nM

## O=C(CC1CCN(c2nccs2)C1)Nc1ccc2cc1CCc1cncc(c1)Nc1ncc(Cl)c(n1)N2 (stereo not drawn) [Example D154, N-[6-Chloro-2,4,8,18,22-pentaazatetracyclo[14.3.1.1(3,7).1(9,13)]docosa-1(20),3(22),4,6,9(21),10,12,16,18-nonaen-12-yl]-2-[1-(1,3-thiazol-2-yl)pyrrolidin-3-yl]acetamide tris(trifluoroacetate)]
[1]; read-out: JAK1 IC50
  IC50: 7.8 nM
[2]
  IC50: > 400 nM
[3]
  IC50: 59 nM
[4]
  IC50: 226 nM

## O=C(CC1CCN(c2nncs2)C1)Nc1ccc2cc1CCc1cncc(c1)Nc1ncc(Cl)c(n1)N2 (stereo not drawn) [Example D155, N-[6-Chloro-2,4,8,18,22-pentaazatetracyclo[14.3.1.1(3,7).1(9,13)]docosa-1(20),3(22),4,6,9(21),10,12,16,18-nonaen-12-yl]-2-[1-(1,3,4-thiadiazol-2-yl)pyrrolidin-3-yl]acetamide tris(trifluoroacetate)]
[1]; read-out: JAK1 IC50
  IC50: 29 nM
[2]
  IC50: > 400 nM
[3]
  IC50: 120 nM
[4]
  IC50: > 400 nM

## O=C(CC1CCN(c2ccccn2)C1)Nc1ccc2cc1CCc1cncc(c1)Nc1ncc(Cl)c(n1)N2 (stereo not drawn) [Example D156, N-[6-Chloro-2,4,8,18,22-pentaazatetracyclo[14.3.1.1(3,7).1(9,13)]docosa-1(20),3(22),4,6,9(21),10,12,16,18-nonaen-12-yl]-2-(1-pyridin-2-ylpyrrolidin-3-yl)acetamide tris(trifluoroacetate)]
[1]; read-out: JAK1 IC50
  IC50: 24 nM
[2]
  IC50: > 400 nM
[3]
  IC50: 29 nM
[4]
  IC50: 217 nM

## O=C(CC1CCN(c2ccncc2)C1)Nc1ccc2cc1CCc1cncc(c1)Nc1ncc(Cl)c(n1)N2 (stereo not drawn) [Example D157, N-[6-Chloro-2,4,8,18,22-pentaazatetracyclo[14.3.1.1(3,7).1(9,13)]docosa-1(20),3(22),4,6,9(21),10,12,16,18-nonaen-12-yl]-2-(1-pyridin-4-ylpyrrolidin-3-yl)acetamide tris(trifluoroacetate)]
[1]; read-out: JAK1 IC50
  IC50: 39 nM
[2]
  IC50: > 400 nM
[3]
  IC50: > 400 nM
[4]
  IC50: > 400 nM

## CC(=O)N1CCC(Nc2ccc3cc2CCc2cncc(c2)Nc2ncc(Cl)c(n2)N3)CC1 [Example D158, N-(1-Acetylpiperidin-4-yl)-6-chloro-2,4,8,18,22-pentaazatetracyclo[14.3.1.1(3,7).1(9,13)]docosa-1(20),3(22),4,6,9(21),10,12,16,18-nonaen-12-amine tris(trifluoroacetate)]
[1]; read-out: JAK1 IC50
  IC50: 150 nM
[2]
  IC50: > 400 nM
[3]
  IC50: > 400 nM
[4]
  IC50: > 400 nM

## O=C(Cc1ccccc1)N1CCC(Nc2ccc3cc2CCc2cncc(c2)Nc2ncc(Cl)c(n2)N3)CC1 [Example D159, 6-Chloro-N-[1-(phenylacetyl)piperidin-4-yl]-2,4,8,18,22-pentaazatetracyclo[14.3.1.1(3,7).1(9,13)]docosa-1(20),3(22),4,6,9(21),10,12,16,18-nonaen-12-amine tris(trifluoroacetate)]
[1]; read-out: JAK1 IC50
  IC50: 313 nM
[2]
  IC50: > 400 nM
[3]
  IC50: > 400 nM
[4]
  IC50: > 400 nM

## Cc1cc(C(=O)N2CCC(Nc3ccc4cc3CCc3cncc(c3)Nc3ncc(Cl)c(n3)N4)CC2)no1 [Example D160, 6-Chloro-N-{1-[(5-methylisoxazol-3-yl)carbonyl]piperidin-4-yl}-2,4,8,18,22-pentaazatetracyclo[14.3.1.1(3,7).1(9,13)]docosa-1(20),3(22),4,6,9(21),10,12,16,18-nonaen-12-amine tris(trifluoroacetate)]
[1]; read-out: JAK1 IC50
  IC50: 244 nM
[2]
  IC50: > 400 nM
[3]
  IC50: 341 nM
[4]
  IC50: > 400 nM

## CC(=O)N1CCC(CCOc2ccc3cc2CCc2cncc(c2)Nc2ncc(Cl)c(n2)N3)CC1 [Example D161, 12-[2-(1-Acetylpiperidin-4-yl)ethoxy]-6-chloro-2,4,8,18,22-pentaazatetracyclo[14.3.1.1(3,7).1(9,13)]docosa-1(20),3(22),4,6,9(21),10,12,16,18-nonaene bis(trifluoroacetate)]
[1]; JAK1 IC50 (nM)
  IC50: 85 nM
[2]
  IC50: > 400 nM
[3]
  IC50: 276 nM
[4]
  IC50: > 400 nM

## O=C(Nc1ccccc1)N1CCC(CCOc2ccc3cc2CCc2cncc(c2)Nc2ncc(Cl)c(n2)N3)CC1 [Example D162, 4-(2-{[6-Chloro-2,4,8,18,22-pentaazatetracyclo[14.3.1.1(3,7).1(9,13)]docosa-1(20),3(22),4,6,9(21),10,12,16,18-nonaen-12-yl]oxy}ethyl)-N-phenylpiperidine-1-carboxamide bis(trifluoroacetate)]
[1]; read-out: JAK1 IC50
  IC50: 10 nM
[2]
  IC50: > 400 nM
[3]
  IC50: 71 nM
[4]
  IC50: > 400 nM

## N#Cc1ccccc1S(=O)(=O)N1CCC(CCOc2ccc3cc2CCc2cncc(c2)Nc2ncc(Cl)c(n2)N3)CC1 [Example D163, 2-{[4-(2-{[6-Chloro-2,4,8,18,22-pentaazatetracyclo[14.3.1.1(3,7).1(9,13)]docosa-1(20),3(22),4,6,9(21),10,12,16,18-nonaen-12-yl]oxy}ethyl)piperidin-1-yl]sulfonyl}benzonitrilebis(trifluoroacetate)]
[1]; read-out: JAK1 IC50
  IC50: 190 nM
[2]
  IC50: > 400 nM
[3]
  IC50: > 400 nM
[4]
  IC50: > 400 nM

## Cc1occc1NC(=O)N1CCC(CCOc2ccc3cc2CCc2cncc(c2)Nc2ncc(Cl)c(n2)N3)CC1 [Example D164, 4-(2-{[6-Chloro-2,4,8,18,22-pentaazatetracyclo[14.3.1.1(3,7).1(9,13)]docosa-1(20),3(22),4,6,9(21),10,12,16,18-nonaen-12-yl]oxy}ethyl)-N-(2-methyl-3-furyl)piperidine-1-carboxamide bis(trifluoroacetate)]
[1]; read-out: JAK1 IC50
  IC50: 39 nM
[2]
  IC50: > 400 nM
[3]
  IC50: 75 nM
[4]
  IC50: > 400 nM

## O=C(NCc1ccco1)N1CCC(CCOc2ccc3cc2CCc2cncc(c2)Nc2ncc(Cl)c(n2)N3)CC1 [Example D165, 4-(2-{[6-Chloro-2,4,8,18,22-pentaazatetracyclo[14.3.1.1(3,7).1(9,13)]docosa-1(20),3(22),4,6,9(21),10,12,16,18-nonaen-12-yl]oxy}ethyl)-N-(2-furylmethyl)piperidine-1-carboxamide bis(trifluoroacetate)]
[1]; read-out: JAK1 IC50
  IC50: 52 nM
[2]
  IC50: > 400 nM
[3]
  IC50: 208 nM
[4]
  IC50: > 400 nM

## O=C(Nc1ccsc1)N1CCC(CCOc2ccc3cc2CCc2cncc(c2)Nc2ncc(Cl)c(n2)N3)CC1 [Example D166, 4-(2-{[6-Chloro-2,4,8,18,22-pentaazatetracyclo[14.3.1.1(3,7).1(9,13)]docosa-1(20),3(22),4,6,9(21),10,12,16,18-nonaen-12-yl]oxy}ethyl)-N-3-thienylpiperidine-1-carboxamide bis(trifluoroacetate)]
[1]; read-out: JAK1 IC50
  IC50: 14 nM
[2]
  IC50: > 400 nM
[3]
  IC50: 58 nM
[4]
  IC50: > 400 nM

## O=C(Nc1cccs1)N1CCC(CCOc2ccc3cc2CCc2cncc(c2)Nc2ncc(Cl)c(n2)N3)CC1 [Example D167, 4-(2-{[6-Chloro-2,4,8,18,22-pentaazatetracyclo[14.3.1.1(3,7).1(9,13)]docosa-1(20),3(22),4,6,9(21),10,12,16,18-nonaen-12-yl]oxy}ethyl)-N-2-thienylpiperidine-1-carboxamide bis(trifluoroacetate)]
[1]; read-out: JAK1 IC50
  IC50: 57 nM
[2]
  IC50: > 400 nM
[3]
  IC50: 244 nM
[4]
  IC50: > 400 nM

## O=C(Nc1ccc(F)cc1)N1CCC(CCOc2ccc3cc2CCc2cncc(c2)Nc2ncc(Cl)c(n2)N3)CC1 [Example D168, 4-(2-{[6-Chloro-2,4,8,18,22-pentaazatetracyclo[14.3.1.1(3,7).1(9,13)]docosa-1(20),3(22),4,6,9(21),10,12,16,18-nonaen-12-yl]oxy}ethyl)-N-(4-fluorophenyl)piperidine-1-carboxamide bis(trifluoroacetate)]
[1]; read-out: JAK1 IC50
  IC50: 34 nM
[2]
  IC50: > 400 nM
[3]
  IC50: 255 nM
[4]
  IC50: > 400 nM

— patent US8871753B2, “Macrocyclic compounds and their use as kinase inhibitors” (Incyte Corporation, priority 2008, dated 2014)
